In publication PMC10919040, “Exploration of newly synthesized azo-thiohydantoins as the potential alkaline phosphatase inhibitors via advanced biochemical characterization and molecular modeling approaches” (BMC Chemistry, 2024) one finds IC50 and melting point data, which are given here for seven compounds.

As a reminder, the IC50 is the concentration needed to halve the response being measured. The melting point is the temperature of the solid-liquid transition.

Data set [1] has as its target intestinal alkaline phosphatase (IAP) (Bos taurus, UniProt P19111). Briefly: Alkaline phosphatase inhibition assay (spectrophotometric, p-NPP substrate). In kind it is biochemical, calf. The note with it: p-NPP 0.5 mM, pH 9.5, 37 °C, Mean ± SEM. The procedure: The measurement of intestinal alkaline phosphatase (IAP) activity was conducted using a spectrophotometric method, as described earlier. […] Additionally, 10 µL of the compound was added to the mixture. The mixture was subjected to pre-incubation with 5 µL of IAP (0.025 U/mL) for a duration of 10 min. The reaction was started by introducing 10 µL of the substrate, which was 0.5 mM p-NPP (para nitrophenyl phosphate disodium salt). Following the addition, the assay underwent an incubation period of 30 min at a temperature of 37 °C. The change in absorbance resulting from the release of p-nitrophenolate was monitored at a wavelength of 405 nm using a Thermo Scientific™ Multiskan GO™ microplate reader. The experiment was repeated three times, with each repetition being done in triplicate. […] The calculation of inhibition activity and IC50 values were carried out as discussed earlier.

intestinal alkaline phosphatase (IAP), sequence (P19111 20-533): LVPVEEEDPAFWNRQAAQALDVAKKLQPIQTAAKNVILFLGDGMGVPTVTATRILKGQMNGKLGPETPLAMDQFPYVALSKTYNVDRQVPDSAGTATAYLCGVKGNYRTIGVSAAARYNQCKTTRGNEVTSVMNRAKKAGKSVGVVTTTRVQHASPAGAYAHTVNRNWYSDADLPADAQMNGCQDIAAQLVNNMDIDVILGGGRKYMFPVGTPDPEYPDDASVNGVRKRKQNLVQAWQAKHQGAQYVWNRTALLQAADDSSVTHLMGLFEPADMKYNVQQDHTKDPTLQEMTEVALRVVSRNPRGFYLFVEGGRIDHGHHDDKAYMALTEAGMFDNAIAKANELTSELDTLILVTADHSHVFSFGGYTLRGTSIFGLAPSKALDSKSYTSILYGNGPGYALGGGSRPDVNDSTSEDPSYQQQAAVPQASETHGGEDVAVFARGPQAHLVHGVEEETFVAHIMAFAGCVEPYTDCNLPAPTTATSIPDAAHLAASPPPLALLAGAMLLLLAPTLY

As to `O=C1CNC(=S)N1/N=C/c1cc(/N=N/c2ccccc2)ccc1O` [Compound 7a, 3-((E)-(2-hydroxy-5-((E)-phenyldiazenyl)benzylidene)amino)-2-thioxoimidazolidin-4-one], the IC50 in data set [1] came to 4.85 ± 0.985 µM. On the same count and under the same terms, for `O=C1CNC(=S)N1/N=C/c1cc(/N=N/c2ccc(S(=O)(=O)O)cc2)ccc1O` [Compound 7b, 4-((E)-(4-hydroxy-3-((E)-((5-oxo-2-thioxoimidazolidin-1-yl)imino)methyl)phenyl)-diazenyl)benzenesulfonic acid] the value was 1.28 ± 0.214 µM; for `O=C1CNC(=S)N1/N=C/c1cc(/N=N/c2cccc(Cl)c2Cl)ccc1O` [Compound 7c, 3-((E)-(5-((E)-(2,3-dichlorophenyl)diazenyl)-2-hydroxybenzylidene)amino)-2 thioxoimidazolidin-4-one], 3.07 ± 0.687 µM. The same measure, in the same setting: the same measure for `Cc1c(Cl)cccc1/N=N/c1ccc(O)c(/C=N/N2C(=O)CNC2=S)c1` [Compound 7d, 3-((E)-(5-((E)-(3-chloro-2-methylphenyl)diazenyl)-2-hydroxybenzylidene)amino)-2-thioxoimidazolidin-4-one]: 3.15 ± 0.853 µM; for `O=C(O)c1ccc(/N=N/c2ccc(O)c(/C=N/N3C(=O)CNC3=S)c2)cc1` [Compound 7e, 4-((E)-(4-hydroxy-3-((E)-((5-oxo-2-thioxoimidazolidin-1-yl)imino)methyl)phenyl)diazenyl)benzoic acid]: 0.308 ± 0.065 µM. Regarding `O=C1CNC(=S)N1/N=C/c1cc(/N=N/c2ccc([N+](=O)[O-])cc2)ccc1O` [Compound 7f, 3-((E)-(2-hydroxy-5-((E)-(4-nitrophenyl)diazenyl)benzylidene)amino)-2-thioxoimidazolidin-4-one], the melting point lay within 271 to 273 °C. Further, inhibition in data set [1] was half-maximal at 0.836 ± 0.097 µM (IC50). Take `N[C@@H](Cc1ccccc1)C(=O)O` [L–Phenyl alanine, reference compound]: the midpoint of inhibition in data set [1], the IC50, lay at 80.2 ± 1.1 µM.
